The numbers were not newly measured in patent US20220280598A1, “COMPLEMENT INHIBITOR DOSING REGIMENS” (Apellis Pharmaceuticals, Inc., priority 2019, published 2022), which cites them from elsewhere.

One data set deals with complement activation. To be noted: relative to compstatin amidated at the C-terminus; published data; cited from earlier work.
The subject of data set [1] is complement activation (alternative pathway). To be noted: alternative pathway-mediated erythrocyte lysis assay (WO2004/026328); cited from earlier work.

As to Ac-ICVVQDWGHHRCT-CONH2 [Ac-compstatin], the Activity over compstatin in the data set on complement activation is listed as 3 × more. On to `CC[C@H](C)[C@H](N)C(=O)N[C@H]1CSSC[C@@H](C(=O)N[C@H](C(N)=O)[C@@H](C)O)NC(=O)[C@H](CCCN=C(N)N)NC(=O)[C@H](Cc2cnc[nH]2)NC(=O)[C@H](Cc2cnc[nH]2)NC(=O)CNC(=O)[C@H](Cc2c[nH]c3ccccc23)NC(=O)[C@H](CC(=O)O)NC(=O)[C@H](CCC(N)=O)NC(=O)[C@H](C(C)C)NC(=O)[C@H](C(C)C)NC1=O` [Compstatin, H-ICVVQDWGHHRCT-CONH2], for which, in data set [1], the IC50 is 12 µM.
